Values joined by “and” are separate entries in the source; they are usually repeats but may differ in a detail not shown here. Equal entries are not always repeated. Inconclusive results and toxic doses are left out. Rule for the calls: active = survival T/C of 150% or more; inactive = T/C below 125% in these data.
System: CD2F1 mice, L1210 leukemia ip, survival T/C
Experiment: NCI In Vivo Anticancer Drug Screen. Data for tumor model L1210 Leukemia (intraperitoneal) in CD2F1 (CDF1) mice
Details: endpoint: mean survival time, higher = longer survival
Outline: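 Transplantable tumor in mice; compound-treated vs vehicle-treated groups. Read-out = treated/control ratio of the measured endpoint.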

[1] = dose: 100.0 mg/kg/injection, schedule: Q04DX003 (ip), vehicle: acetone
[2] = dose: 200.0 mg/kg/injection, schedule: Q04DX003 (ip), vehicle: acetone
[3] = dose: 400.0 mg/kg/injection, schedule: Q04DX003 (ip), vehicle: acetone
[4] = dose: 100.0 mg/kg/injection, schedule: Q01DX001 (ip), vehicle: saline with Tween-80
[5] = dose: 200.0 mg/kg/injection, schedule: Q01DX001 (ip), vehicle: saline with Tween-80
[6] = dose: 400.0 mg/kg/injection, schedule: Q01DX001 (ip), vehicle: saline with Tween-80
[7] = dose: 100.0 mg/kg/injection, schedule: Q04DX003 (ip), vehicle: saline with Tween-80
[8] = dose: 200.0 mg/kg/injection, schedule: Q04DX003 (ip), vehicle: saline with Tween-80
[9] = dose: 400.0 mg/kg/injection, schedule: Q04DX003 (ip), vehicle: saline with Tween-80
[10] = dose: 50.0 mg/kg/injection, schedule: Q01DX009 (ip), vehicle: saline with Tween-80
[11] = dose: 100.0 mg/kg/injection, schedule: Q01DX009 (ip), vehicle: saline with Tween-80

Measured: T/C

CCCC(C(=O)OCC)C1=NC(C)(C)CC(C)O1 (stereo not given)
inactive: [1] 100 % of control | [2] 102 % of control | [3] 94 % of control

C=CCNC(=O)C(O)C(O)C(=O)NCC=C (stereo not given)
inactive: dose: 100.0 mg/kg/injection, schedule: Q01DX009 (ip), vehicle: acetone 101 % of control | [1] 98 % of control | dose: 200.0 mg/kg/injection, schedule: Q01DX009 (ip), vehicle: acetone 96 % of control | [2] 100 % of control | dose: 400.0 mg/kg/injection, schedule: Q01DX009 (ip), vehicle: acetone 98 % of control | [3] 112 % of control

O=[N+]([O-])c1cc(C(F)(F)F)cc([N+](=O)[O-])c1Cl
inactive: dose: 1.56 mg/kg/injection, schedule: Q04DX003 (ip), vehicle: Klucel (hydroxypropylcellulose) (HPC) 98 % of control and 101 % of control | dose: 3.12 mg/kg/injection, schedule: Q04DX003 (ip), vehicle: Klucel (hydroxypropylcellulose) (HPC) 98 % of control and 102 % of control | dose: 6.25 mg/kg/injection, schedule: Q04DX003 (ip), vehicle: Klucel (hydroxypropylcellulose) (HPC) 95 % of control and 98 % of control | dose: 12.5 mg/kg/injection, schedule: Q04DX003 (ip), vehicle: Klucel (hydroxypropylcellulose) (HPC) 90 % of control and 98 % of control

CCCCCCC1=C(O)C(=O)C(CCCCCC)=C(O)C1=O
inactive: dose: 100.0 mg/kg/injection, schedule: Q01DX001 (ip), vehicle: saline 100 % of control | dose: 200.0 mg/kg/injection, schedule: Q01DX001 (ip), vehicle: saline 97 % of control | dose: 400.0 mg/kg/injection, schedule: Q01DX001 (ip), vehicle: saline 97 % of control

CC(C)(C)C1CCC(S(=O)c2ccccc2)CC1 (stereo not given)
inactive: [4] 105 % of control | dose: 100.0 mg/kg/injection, schedule: Q04DX002 (ip), vehicle: saline with Tween-80 90 % of control | [5] 100 % of control | dose: 200.0 mg/kg/injection, schedule: Q04DX002 (ip), vehicle: saline with Tween-80 93 % of control | [6] 103 % of control | dose: 400.0 mg/kg/injection, schedule: Q04DX002 (ip), vehicle: saline with Tween-80 93 % of control

Cc1ncc([N+](=O)[O-])cc1C(=O)O
inactive: [7] 94 % of control | [8] 96 % of control | [9] 93 % of control

NC(=O)C(NCCn1cnc2c(N)ncnc21)C(N)=O
inactive: dose: 1.25 mg/kg/injection, schedule: Q01DX005 (ip), vehicle: water 92 % of control | dose: 2.5 mg/kg/injection, schedule: Q01DX005 (ip), vehicle: water 92 % of control | dose: 5.0 mg/kg/injection, schedule: Q01DX005 (ip), vehicle: water 92 % of control | dose: 10.0 mg/kg/injection, schedule: Q01DX005 (ip), vehicle: water 95 % of control | dose: 20.0 mg/kg/injection, schedule: Q01DX005 (ip), vehicle: water 95 % of control

O=C1c2ccccc2C(=O)c2c(NCCSCCO)ccc(NCCSCCO)c21
inactive: dose: 16.0 mg/kg/injection, schedule: Q01DX009 (ip), vehicle: Klucel (hydroxypropylcellulose) (HPC) 100 % of control | dose: 32.0 mg/kg/injection, schedule: Q01DX009 (ip), vehicle: Klucel (hydroxypropylcellulose) (HPC) 102 % of control | dose: 64.0 mg/kg/injection, schedule: Q01DX009 (ip), vehicle: Klucel (hydroxypropylcellulose) (HPC) 93 % of control | dose: 128.0 mg/kg/injection, schedule: Q01DX009 (ip), vehicle: Klucel (hydroxypropylcellulose) (HPC) 93 % of control | dose: 256.0 mg/kg/injection, schedule: Q01DX009 (ip), vehicle: Klucel (hydroxypropylcellulose) (HPC) 102 % of control

Cc1cc2c(cc1C)N(C(=O)CN1CCCCC1)CC(=O)N2
inactive: dose: 75.0 mg/kg/injection, schedule: Q04DX003 (ip), vehicle: saline 94 % of control | dose: 150.0 mg/kg/injection, schedule: Q04DX003 (ip), vehicle: saline 89 % of control

OC1CC2CC1C1C=CCC21 (stereo not given)
inactive: [10] 95 % of control | [11] 98 % of control | [7] 93 % of control | dose: 200.0 mg/kg/injection, schedule: Q01DX009 (ip), vehicle: saline with Tween-80 93 % of control | [8] 93 % of control

CCCN(CCC)C(=O)C(=O)OCC
inactive: dose: 6.25 mg/kg/injection, schedule: Q01DX009 (ip), vehicle: saline 90 % of control | dose: 12.5 mg/kg/injection, schedule: Q01DX009 (ip), vehicle: saline 96 % of control | dose: 25.0 mg/kg/injection, schedule: Q01DX009 (ip), vehicle: saline 93 % of control

O=C(C(c1ccccc1)C(F)(F)F)N1CCCC1 (stereo not given)
inactive: [7] 97 % of control | [8] 100 % of control | [9] 97 % of control

O=C(CCl)c1cnc2ccccc2n1
inactive: dose: 5.0 mg/kg/injection, schedule: Q01DX001 (ip), vehicle: saline 91 % of control | dose: 10.0 mg/kg/injection, schedule: Q01DX001 (ip), vehicle: saline 94 % of control | dose: 20.0 mg/kg/injection, schedule: Q01DX001 (ip), vehicle: saline 95 % of control

C=CCOCC(O)CN(CCCC)CCCC (stereo not given)
inactive: dose: 25.0 mg/kg/injection, schedule: Q04DX003 (ip), vehicle: saline with Tween-80 104 % of control | dose: 50.0 mg/kg/injection, schedule: Q04DX003 (ip), vehicle: saline with Tween-80 106 % of control | [7] 90 % of control and 110 % of control

Nc1nc(SCc2ccccc2[N+](=O)[O-])c2[nH]cnc2n1
inactive: dose: 125.0 mg/kg/injection, schedule: Q01DX Z (ip), vehicle: carboxymethylcellulose (CMC) 102 % of control | dose: 250.0 mg/kg/injection, schedule: Q01DX Z (ip), vehicle: carboxymethylcellulose (CMC) 104 % of control | dose: 500.0 mg/kg/injection, schedule: Q01DX Z (ip), vehicle: carboxymethylcellulose (CMC) 116 % of control | dose: 1000.0 mg/kg/injection, schedule: Q01DX Z (ip), vehicle: carboxymethylcellulose (CMC) 112 % of control

CCCCCCCC(O)CCCCCCC
inactive: dose: 100.0 mg/kg/injection, schedule: Q01DX009 (ip), vehicle: other 101 % of control | dose: 100.0 mg/kg/injection, schedule: Q04DX003 (ip), vehicle: other 95 % of control | dose: 200.0 mg/kg/injection, schedule: Q01DX009 (ip), vehicle: other 98 % of control | dose: 200.0 mg/kg/injection, schedule: Q04DX003 (ip), vehicle: other 97 % of control | dose: 400.0 mg/kg/injection, schedule: Q01DX009 (ip), vehicle: other 95 % of control | dose: 400.0 mg/kg/injection, schedule: Q04DX003 (ip), vehicle: other 100 % of control

O=C(O)C(=O)Cc1cccc(Cl)c1[N+](=O)[O-]
inactive: dose: 37.5 mg/kg/injection, schedule: Q01DX009 (ip), vehicle: saline 97 % of control | dose: 75.0 mg/kg/injection, schedule: Q01DX009 (ip), vehicle: saline 103 % of control | dose: 150.0 mg/kg/injection, schedule: Q01DX009 (ip), vehicle: saline 97 % of control

COc1cc(/C=C2\C(=O)NC(=O)N(c3ccccc3)C2=O)cc(OC)c1OC
inactive: [7] 100 % of control | [8] 100 % of control

CSCC(NC(=O)OCc1ccccc1)C(=O)O (stereo not given)
inactive: [7] 101 % of control | [8] 101 % of control

O=C1c2ccccc2C(C2c3ccccc3C(=O)c3ccccc32)c2ccccc21
inactive: [7] 110 % of control | [8] 96 % of control | [9] 100 % of control

CCOC(=O)/C(C#N)=C\c1cc(OC)ccc1OC
inactive: dose: 25.0 mg/kg/injection, schedule: Q01DX009 (ip), vehicle: saline with Tween-80 102 % of control | [10] 94 % of control | [11] 104 % of control

COC1OC(CCl)C(Cl)C(OC)C1OC (stereo not given)
inactive: [4] 96 % of control | [5] 91 % of control | [6] 87 % of control

Source: PubChem BioAssay AID256 (DTP/NCI, 2004)
